Consider 18 compounds from patent US9994570B2, “Bridged diazepane orexin receptor antagonists” (MERCK SHARP & DOHME CORP., priority 2014, dated 2018).

One assay addresses T1, human orexin-2 receptor (Homo sapiens, UniProt O43614).
T1 construct: expressed in transfected cells; host or cells: CHO cells (grown under G418 selection)
T1 sequence (O43614 1-444): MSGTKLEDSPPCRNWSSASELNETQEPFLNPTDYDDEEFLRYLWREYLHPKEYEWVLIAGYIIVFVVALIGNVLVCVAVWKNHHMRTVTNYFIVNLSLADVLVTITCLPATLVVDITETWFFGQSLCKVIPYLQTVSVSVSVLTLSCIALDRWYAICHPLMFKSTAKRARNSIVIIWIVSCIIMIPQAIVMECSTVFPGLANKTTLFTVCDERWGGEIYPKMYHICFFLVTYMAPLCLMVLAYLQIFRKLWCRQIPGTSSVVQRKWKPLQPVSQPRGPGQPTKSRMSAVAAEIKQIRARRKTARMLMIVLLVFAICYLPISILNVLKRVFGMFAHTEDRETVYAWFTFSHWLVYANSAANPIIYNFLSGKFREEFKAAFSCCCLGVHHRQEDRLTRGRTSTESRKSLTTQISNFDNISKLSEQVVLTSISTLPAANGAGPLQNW
Briefly: FLIPR Ca2+ flux assay, OX2R. The assay is classed as cell-based. The note with it: for IC50: CHO cells expressing the human orexin-2 receptor, agonist 70 pM Ala-6,12 orexin-A; for Fold Selective: OX1R FLIPR / OX2R FLIPR. The method, then:
(§1) The utility of the compounds in accordance with the present invention as orexin receptor OX1R and/or OX2R antagonists may be readily determined without undue experimentation by methodology well known in the art, including the “FLIPR Ca^2+ Flux Assay” (Okumura et al., Biochem. Biophys. Res. Comm. 280:976-981, 2001). In a typical experiment the OX1 and OX2 receptor antagonistic activity of the compounds of the present invention was determined in accordance with the following experimental method. For intracellular calcium measurements, Chinese hamster ovary (CHO) cells expressing the rat orexin-1 receptor or the human orexin-2 receptor, are grown in Iscove's modified DMEM containing 2 mM L-glutamine, […], 1% hypoxanthine-thymidine supplement, 100 U/ml penicillin, 100 μg/ml streptomycin and 10% heat-inactivated fetal calf serum (FCS). The cells are seeded at 20,000 cells/well into Becton-Dickinson black 384-well clear bottom sterile plates coated with poly-D-lysine. All reagents were from GIBCO-Invitrogen Corp. The seeded plates are incubated overnight at 37° C. and 5% CO2. Ala-6,12 human orexin-A as the agonist is prepared as a 1 mM stock solution in 1% bovine serum albumin (BSA) and diluted in assay buffer (HBSS containing 20 mM HEPES, 0.1% BSA and 2.5 mM probenecid, pH7.4) for use in the assay at a final concentration of 70 pM. Test compounds are prepared as 10 mM stock solution in DMSO, then diluted in 384-well plates, first in DMSO, then assay buffer. On the day of the assay, cells are washed 3 times with 100 μl assay buffer and then incubated for 60 min (37° C., 5% CO2) in 60 μl assay buffer containing 1 μM Fluo-4AM ester, 0.02% pluronic acid, and 1% BSA. The dye loading solution is then aspirated and cells are washed 3 times with 100 μl assay buffer. 30 μl of that same buffer is left in each well. Within the Fluorescent Imaging Plate Reader (FLIPR, Molecular Devices), test compounds are added to the plate in a volume of 25 μl, incubated for 5 min and finally 25 μl of agonist is added. Fluorescence is measured for each well at 1 second intervals for 5 minutes and the height of each fluorescence peak is compared to the height of the fluorescence peak induced by 70 pM Ala-6,12 orexin-A with buffer in place of antagonist. For each antagonist, IC50 value (the concentration of compound needed to inhibit 50% of the agonist response) is determined. Alternatively, compound potency can be assessed by a radioligand binding assay (described in Bergman et. al. Bioorg. Med. Chem. Lett. 2008, 18, 1425-1430) in which the inhibition constant (Ki) is determined in membranes prepared from CHO cells expressing either the OX1 or OX2 receptor. The intrinsic orexin receptor antagonist activity of a compound which may be used in the present invention may be determined by these assays.

For the next assay, the target named is T2, rat orexin-1 receptor (Rattus norvegicus, UniProt P56718).
T2 construct: expressed in transfected cells; host or cells: CHO cells (grown under G418 selection)
T2 sequence (P56718 1-416): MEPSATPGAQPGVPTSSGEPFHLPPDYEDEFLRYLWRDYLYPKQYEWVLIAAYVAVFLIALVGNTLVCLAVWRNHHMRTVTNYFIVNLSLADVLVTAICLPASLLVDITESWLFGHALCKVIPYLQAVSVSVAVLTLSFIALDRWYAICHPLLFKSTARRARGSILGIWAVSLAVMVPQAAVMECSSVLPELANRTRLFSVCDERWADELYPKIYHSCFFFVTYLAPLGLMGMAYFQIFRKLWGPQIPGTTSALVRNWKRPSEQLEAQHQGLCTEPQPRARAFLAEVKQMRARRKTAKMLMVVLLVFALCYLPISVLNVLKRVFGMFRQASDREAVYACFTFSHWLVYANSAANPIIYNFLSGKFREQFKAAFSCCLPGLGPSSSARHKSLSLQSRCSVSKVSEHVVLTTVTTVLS
Kind of assay: FLIPR Ca2+ flux assay, OX1R. The format is cell-based. The conditions noted are these: CHO cells expressing the rat orexin-1 receptor; agonist 70 pM Ala-6,12 orexin-A. The method, then: as §1
For orientation: Calcium assays in cells follow changes in intracellular calcium, usually with a dye or a luminescent sensor.

Broadly, the IC50 is the concentration that gives 50% inhibition. High values mean weaker potency in that assay, low ones greater potency in that assay. Turning to `Cc1cc(C)nc(N2CC3CC2CN(C(=O)c2cccnc2OCC(F)(F)F)C3)n1` (stereo not drawn) [Example 22, 6-(4,6-dimethylpyrimidin-2-yl)-3-{[2-(2,2,2-trifluoroethoxy)pyridin-3-yl]carbonyl}-3,6-diazabicyclo[3.2.1]octane], at human orexin-2 receptor, the IC50 turned out to be 13 nM and the “Fold Selective” value was 80. The IC50 on rat orexin-1 receptor was determined as 1040 nM.
Taken in the same sequence, the figures for `Cc1cc(C)nc(N2CC3CC2CN(C(=O)c2cccnc2N(C)CC(F)F)C3)n1` (single isomer, unassigned) [Example 47] were 29 nM, 261 and 7560 nM.
In the same order, the values of `Cc1cc(C)nc(N2CC3CC2CN(C(=O)c2nccnc2OCC2CC2)C3)n1` (stereo not drawn) [Example 48, (3-(cyclopropylmethoxy)pyrazin-2-yl)(6-(4,6-dimethylpyrimidin-2-yl)-3,6-diazabicyclo[3.2.1]octan-3-yl)methanone] are 37 nM, 103 and 3830 nM.
With `Cc1cc(C)nc(N2CC3CC2CN(C(=O)c2nccnc2OCC(F)F)C3)n1` (stereo not drawn) [Example 49, 3-{[3-[2,2-difluoroethoxy)pyrazin-2-yl]carbonyl}-6-(4,6-dimethylpyrimidin-2-yl)-3,6-diazabicyclo[3.2.1]octane], the results for the IC50 at human orexin-2 receptor and on rat orexin-1 receptor were 33 nM and 3860 nM, respectively. Moreover, the “Fold Selective” value at human orexin-2 receptor came to 117.
Taken in the same sequence, the figures for `Cc1cc(C)nc(N2CC3CC2CN(C(=O)c2cccnc2OCC2CC2(F)F)C3)n1` (stereo not drawn) [Example 41, 3-({2-[(2,2-difluorocyclopropyl)methoxy]pyridin-3-yl}carbonyl)-6-(4,6-dimethylpyrimidin-2-yl)-3,6-diazabicyclo[3.2.1]octane] were 12 nM, 584 nM and 49.
Consider `Cc1cc(C#N)nc(N2CC3CC2CN(C(=O)c2cccnc2OCC(F)F)C3)n1` (stereo not drawn) [Example 4, 2-(3-{[2-(2,2-difluoroethoxy)pyridin-3-yl]carbonyl}-3,6-diazabicyclo[3.2.1]oct-6-yl)-6-methylpyrimidine-4-carbonitrile], for which the IC50 at human orexin-2 receptor is 19 nM; at rat orexin-1 receptor it was 3300 nM. For the same compound, the “Fold Selective” value on human orexin-2 receptor is 174.
In the case of `Cc1cc(C)nc(N2CC3CC2CN(C(=O)c2ccccc2-n2ncnn2)C3)n1` (stereo not drawn) [Example 19, 6-(4,6-dimethylpyrimidin-2-yl)-3-{[2-(2H-tetrazol-2-yl)phenyl]carbonyl}-3,6-diazabicyclo[3.2.1]octane], on human orexin-2 receptor, the IC50 turned out to be 36 nM and the “Fold Selective” value came out at 44. Besides, the 50% inhibitory concentration (IC50) at rat orexin-1 receptor came to 1600 nM.
In the same order, the values of `CCCc1ccccc1C(=O)N1CC2CC(C1)N(c1nc(C)cc(C)n1)C2` (stereo not drawn) [Example 27, 6-(4,6-dimethylpyrimidin-2-yl)-3-[(2-propylphenyl)carbonyl]-3,6-diazabicyclo[3.2.1]octane] are 14 nM, 84 and 1180 nM.
Taken in the same sequence, the figures for `Cc1cc(C)nc(N2CC3CC2CN(C(=O)c2nccnc2OCC(C)(F)F)C3)n1` (stereo not drawn) [Example 53, (3-(2,2-difluoropropoxy)pyrazin-2-yl)(6-(4,6-dimethylpyrimidin-2-yl)-3,6-diazabicyclo[3.2.1]octan-3-yl)methanone] were 39 nM, 165 and 6450 nM.
In the same order, the values of `Cc1cc(C#N)nc(N2CC3CC2CN(C(=O)c2ccccc2CC(F)(F)F)C3)n1` (stereo not drawn) [Example 1, 6-methyl-2-(3-(2-(2,2,2-trifluoroethyl)benzoyl)-3,6-diazabicyclo[3.2.1]octan-6-yl)pyrimidine-4-carbonitrile] are 23 nM, 81 and 1870 nM.
Turning to `Cc1cc(C)nc(N2CC3CC2CN(C(=O)c2ccc(F)cc2C2CC2)C3)n1` (stereo not drawn) [Example 14, 3-[(2-cyclopropyl-4-fluorophenyl)carbonyl]-6-(4,6-dimethylpyrimidin-2-yl)-3,6-diazabicyclo[3.2.1]octane], at human orexin-2 receptor, the concentration for half-maximal inhibition (IC50) is 26 nM and the “Fold Selective” value was found to be 56. At rat orexin-1 receptor, this compound came in with a 50% inhibitory concentration (IC50) of 1450 nM.
In the same order, the values of `Cc1cc(C#N)nc(N2CC3CC2CN(C(=O)c2ccccc2OCC(F)(F)F)C3)n1` (stereo not drawn) [Example 3, 6-methyl-2-(3-(2-(2,2,2-trifluoroethoxy)benzoyl)-3,6-diazabicyclo[3.2.1]octan-6-yl)pyrimidine-4-carbonitrile] are 18 nM, 178 and 3210 nM.
Turning to `Cc1cc(C)nc(N2CC3CC2CN(C(=O)c2cccnc2OC(C)C)C3)n1` (stereo not drawn) [Example 21, 6-(4,6-dimethylpyrimidin-2-yl)-3-{[2-(1-methylethoxy)pyridin-3-yl]carbonyl}-3,6-diazabicyclo[3.2.1]octane], on human orexin-2 receptor, the IC50 is 18 nM and the “Fold Selective” value was found to be 148. The IC50 on rat orexin-1 receptor was 2670 nM.
With `Cc1cc(C)nc(N2CC3CC2CN(C(=O)c2cccnc2C2CC2)C3)n1` (stereo not drawn) [Example 35, 3-[(2-cyclopropylpyridin-3-yl)carbonyl]-6-(4,6-dimethylpyrimidin-2-yl)-3,6-diazabicyclo[3.2.1]octane], on human orexin-2 receptor, the IC50 was 47 nM and the “Fold Selective” value was >213. Further, the IC50 on rat orexin-1 receptor was > 10000 nM.
In the same order, the values of `Cc1cc(C)nc(N2CC3CC2CN(C(=O)c2ccccc2CC(F)(F)F)C3)n1` (stereo not drawn) [Example 25, 6-(4,6-dimethylpyrimidin-2-yl)-3-{[2-(2,2,2-trifluoroethyl)phenyl]carbonyl}-3,6-diazabicyclo[3.2.1]octane] are 17 nM, 119 and 2020 nM.
In the same order, the values of `Cc1cc(C)nc(N2CC3CC2CN(C(=O)c2ccccc2OC(F)F)C3)n1` (stereo not drawn) [Example 34, 3-{[2-(difluoromethoxy)phenyl]carbonyl}-6-(4,6-dimethylpyrimidin-2-yl)-3,6-diazabicyclo[3.2.1]octane] are 24 nM, 112 and 2680 nM.
For the compound `Cc1cc(C)nc(N2CC3CC2CN(C(=O)c2cccnc2OCC(F)(F)C(F)F)C3)n1` (stereo not drawn) [Example 43, 6-(4,6-dimethylpyrimidin-2-yl)-3-{[2-(2,2,3,3-tetrafluoropropoxy)pyridin-3-yl]carbonyl}-3,6-diazabicyclo[3.2.1]octane], on human orexin-2 receptor, the half-inhibitory concentration (IC50) is 5 nM and the “Fold Selective” value is recorded as 41. This compound also showed an IC50 at rat orexin-1 receptor of 206 nM.
Taken in the same sequence, the figures for `COCc1ccccc1C(=O)N1CC2CC(C1)N(c1nc(C)cc(C)n1)C2` (stereo not drawn) [Example 10, (6-(4,6-dimethylpyrimidin-2-yl)-3,6-diazabicyclo[3.2.1]octan-3-yl)(2-(methoxymethyl)phenyl)methanone] were 46 nM, 74 and 3410 nM.
